Reference: article PMC5460925, “Degradation Paradigm of the Gut Hormone, Pancreatic Polypeptide, by Hepatic and Renal Peptidases” (Endocrinology, 2017)
Where no end group is shown, it is not given here.

How the values were obtained:
[1] = system: food intake in C57/BL6 mice; assay: Acute feeding studies (food intake) in overnight-fasted mice; format: in vivo, mouse; details: for inhibition of food intake over 24 hours vs saline: 0 to 24 hours
Method: All animal procedures were approved by the British Home Office, under the United Kingdom Animal (Scientific Procedures) Act 1986 (project license, 70/6402). Adult male C57/BL6 mice (Harlan, Wyton, UK) weighing 20 to 25 g were maintained in individual cages under controlled temperature (21°C to 23°C) and light (12-hour light/dark cycle, with lights on at 7:00 AM). The mice had ad libitum access to water and normal chow RM1 (Special Diet Services, Devon, UK), unless stated otherwise. For acclimatization, the mice were regularly handled and given 2 sham subcutaneous (SC) and/or intraperitoneal (IP) injections of saline. Before each feeding study, the mice were fasted overnight, and the injections were performed during the early light phase (8:00 to 10:00 AM). The mice were stratified by body weight. To investigate the anorectic effects of DPPIV-resistant analogs, the mice were stratified into treatment groups and administered a SC injection (maximum volume, 100 µL) of vehicle, PP, PP3-36, PP2-36, or PP-Ala0 (n = […]). Food intake was measured at 1, 2, 4, and 8 hours after injection to compare the peptides with short half-lives (PP and its endogenous degradation product, PP3-36) and, in a separate experiment, at 24 hours after injection for peptides with modifications (PP-Ala0 and PP2-36, using PP as the comparator). A PP analog with global modifications for enzyme resistance (PP-x) was also investigated and administered as a SC injection (maximum volume, 100 µL) at a high and low dose (n = 9). Food intake was measured at 1, 2, 4, and 8 hours after injection. […] This dose of phosphoramidon was sufficient to inhibit NEP activity ([30]). Food intake was measured at 1, 2, 4, 8, 24, and 48 hours after injection.

mouse Y4 receptor = biological target: T1, mouse Y4 receptor (Mus musculus, UniProt Q61041); assay: Y4 receptor binding assay (125I-PP competition)
T1 construct: expressed in transfected cells; host or cells: HEK293
Method: Transfected HEK293 cells overexpressing the mouse Y4 receptor were prepared and binding assays performed as previously described ([29]). Isolated cell membranes (protein concentration, 1 to 2 µg/mL) were incubated for 90 minutes in siliconized polypropylene tubes together with ^125I-PP [1 kBq (100 pM)] and a dose response of unlabeled competing peptides at 4°C in binding buffer [20 mM HEPES (pH 7.4), 1 mM MgCl2, 5 mM CaCl2, 0.1% bovine serum albumin, and protease inhibitors (0.2 mM phenylmethylsulfonyl fluoride, 0.1 mM Diprotin A, and 10 µM phosphoramidon ( all from Sigma-Aldrich)] in a final assay volume of 0.5 mL. PP was iodinated as previously described ([8]) using ^125I from GE Healthcare Life Sciences (Amersham, UK). Pelleted membranes were washed with 5 mL ice-cold assay buffer, and the membranes were centrifuged at 15,874g for 3 minutes at 4°C, as described, to separate bound and free label. Bound radioactivity was measured using a γ-counter (NE 1600; NE Technology Ltd, Reading, UK). Specific binding was calculated as the difference between the amount of ^125I-PP bound in the absence (total binding) and presence of 5 μM unlabeled competing peptide (nonsaturable binding). All curves were performed with points in triplicate. Half maximal inhibitory concentration values were calculated using Prism, version 5.01 (GraphPad Software Inc., San Diego, CA) using a three-parameter logistic equation for the nonlinear regression fit: Y = bottom + (top − bottom)/1 + 10^(LogEC50 − X), where EC50 is the half maximal effective concentration.

in vivo = assay: in vivo; set-up: species or system mouse; details: sc
Method: The mice were divided into four treatment groups according to body weight. A protocol similar to that used for the phosphoramidon feeding study was used, with an IP injection, followed by a SC injection 15 minutes later (maximum volume, 50 µL for each injection) of phosphoramidon (0, 7, 20, and 60 mg/kg IP), followed by PP (150 nmol/kg SC in saline; n = 4 to 6; […]). […] Additional mice (n = 2) underwent overnight fasting and were culled at 0 minutes after injection of the control substances (saline SC and vehicle IP) for measurement of the baseline levels of circulating PP. The blood was immediately removed via cardiac puncture and centrifuged at 6000 rpm (Sigma 3K18; 12348 rotor; Sigma-Aldrich) for 10 minutes. The plasma was stored at −20°C until analysis. The plasma samples were assayed using an established in-house PP RIA ([8]). The anti-PP antibody was elevated in rabbit against human PP and recognized PP (and other truncated forms) but not in other PP-fold peptides or gastrointestinal peptides. ^125I-PP was prepared using the iodogen method and purified using HPLC. The assay was performed in duplicate in a total volume of 700 µL of 0.06 M phosphate buffer (pH 7.35) containing 0.3% bovine serum albumin. The samples were incubated for 3 days at 4°C before separation of free and antibody-bound ^125I-PP using dextran-coated charcoal. The sensitivity was ≤5 fmol/tube. The intra-assay coefficient of variation was 6%.

[2] = 150 nmol/kg SC, overnight-fasted C57/BL6 mice, n = 7

T1 sequence (Q61041 whole entry): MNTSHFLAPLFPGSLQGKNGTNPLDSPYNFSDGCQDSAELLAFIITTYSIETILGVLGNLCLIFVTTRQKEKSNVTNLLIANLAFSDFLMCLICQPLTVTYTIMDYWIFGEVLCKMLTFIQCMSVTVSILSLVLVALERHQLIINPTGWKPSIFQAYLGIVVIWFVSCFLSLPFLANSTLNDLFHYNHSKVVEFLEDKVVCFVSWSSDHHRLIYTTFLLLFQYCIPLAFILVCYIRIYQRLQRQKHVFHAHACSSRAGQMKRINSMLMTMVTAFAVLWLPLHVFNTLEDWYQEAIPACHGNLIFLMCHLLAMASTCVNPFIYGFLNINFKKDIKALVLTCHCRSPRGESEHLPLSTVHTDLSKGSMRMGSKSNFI

Compound: CC[C@H](C)[C@H](NC(=O)[C@H](Cc1ccc(O)cc1)NC(=O)[C@H](CCCNC(=N)N)NC(=O)[C@H](CCCNC(=N)N)NC(=O)[C@H](CC(C)C)NC(=O)[C@H](CC(=O)O)NC(=O)[C@H](C)NC(=O)[C@H](C)NC(=O)[C@H](Cc1ccc(O)cc1)NC(=O)[C@H](CCC(N)=O)NC(=O)[C@H](C)NC(=O)[C@H](CCSC)NC(=O)[C@H](CCC(N)=O)NC(=O)[C@H](CCC(=O)O)NC(=O)[C@@H]1CCCN1C(=O)[C@@H](NC(=O)[C@H](C)NC(=O)[C@H](CC(N)=O)NC(=O)[C@H](CC(=O)O)NC(=O)CNC(=O)[C@@H]1CCCN1C(=O)[C@H](Cc1ccc(O)cc1)NC(=O)[C@@H](NC(=O)[C@@H]1CCCN1C(=O)[C@H](CCC(=O)O)NC(=O)[C@H](CC(C)C)NC(=O)[C@@H]1CCCN1)C(C)C)[C@@H](C)O)C(=O)N[C@@H](CC(N)=O)C(=O)N[C@@H](CCSC)C(=O)N[C@@H](CC(C)C)C(=O)N[C@H](C(=O)N[C@@H](CCCNC(=N)N)C(=O)N1CCC[C@H]1C(=O)N[C@@H](CCCNC(=N)N)C(=O)N[C@@H](Cc1ccc(O)cc1)C(N)=O)[C@@H](C)O [PP2-36]
- inhibition of food intake over 24 hours vs saline [1, 2]: statistically significant inhibition of food intake

Compound: CC[C@H](C)[C@H](NC(=O)[C@H](Cc1ccc(O)cc1)NC(=O)[C@H](CCCNC(=N)N)NC(=O)[C@H](CCCNC(=N)N)NC(=O)[C@H](CC(C)C)NC(=O)[C@H](CC(=O)O)NC(=O)[C@H](C)NC(=O)[C@H](C)NC(=O)[C@H](Cc1ccc(O)cc1)NC(=O)[C@H](CCC(N)=O)NC(=O)[C@H](C)NC(=O)[C@H](CCSC)NC(=O)[C@H](CCC(N)=O)NC(=O)[C@H](CCC(=O)O)NC(=O)[C@@H]1CCCN1C(=O)[C@@H](NC(=O)[C@H](C)NC(=O)[C@H](CC(N)=O)NC(=O)[C@H](CC(=O)O)NC(=O)CNC(=O)[C@@H]1CCCN1C(=O)[C@H](Cc1ccc(O)cc1)NC(=O)[C@@H](NC(=O)[C@@H]1CCCN1C(=O)[C@H](CCC(=O)O)NC(=O)[C@H](CC(C)C)NC(=O)[C@@H]1CCCN1C(=O)[C@H](C)NC(=O)[C@H](C)N)C(C)C)[C@@H](C)O)C(=O)N[C@@H](CC(N)=O)C(=O)N[C@@H](CCSC)C(=O)N[C@@H](CC(C)C)C(=O)N[C@H](C(=O)N[C@@H](CCCNC(=N)N)C(=O)N1CCC[C@H]1C(=O)N[C@@H](CCCNC(=N)N)C(=O)N[C@@H](Cc1ccc(O)cc1)C(N)=O)[C@@H](C)O [PP-Ala0]
- IC50 (mouse Y4 receptor; membranes of HEK293 cells overexpressing mouse Y4 receptor, competition with 125I-PP (100 pM), 90 min, 4°C, mean ± SEM of three to five separate experiments, read-out: IC50 (half maximal inhibitory concentration), Y4 receptor binding affinity): 0.35 ± 0.05 nM
- level at time molar at 0.75 h (in vivo; male, C57BL/6, mouse, 150 nmol/kg, plasma level of PP-Ala0 at 45 minutes, alone): 4.92 ± 0.48 nM
- level at time molar at 1.5 h (in vivo; male, C57BL/6, mouse, 150 nmol/kg, plasma level of PP-Ala0 at 90 minutes, alone): 1.81 ± 0.319 nM
- decrease of plasma level (peptide cleared) between 45 and 90 minutes after injection (in vivo; mouse): 60%
- inhibition of food intake over 24 hours vs saline [1, 2]: statistically significant inhibition of food intake

Compound: CC(C)C[C@H](NP(=O)(O)O[C@@H]1O[C@@H](C)[C@H](O)[C@@H](O)[C@H]1O)C(=O)N[C@@H](Cc1c[nH]c2ccccc12)C(=O)O [phosphoramidon]
- effect on food intake, inhibitor alone ([1]; phosphoramidon 5 mg/kg IP then saline SC, any interval up to 48 hours): did not cause a substantial reduction of food intake

Compound: N[C@@H](CC(=O)N1CCn2c(nnc2C(F)(F)F)C1)Cc1cc(F)c(F)cc1F [sitagliptin]
- effect on food intake, inhibitor alone ([1]; sitagliptin 6 mg/kg IP then saline SC, any interval up to 8 hours): did not cause a substantial reduction of food intake

Compound: GAPLEPTYPGDNATPEQLARYAAALRRYINKLTRPRY-NH2 (C-terminus assumed) [PP-x]
- plasma level at 120 minutes relative to PP (in vivo; mouse): almost threefold
- level at time molar at 0.5 h (in vivo; mouse, 100 nmol/kg, plasma peptide level at 30 minutes after injection): 26.9 nM
- level at time molar at 2 h (in vivo; mouse, 100 nmol/kg, plasma peptide level at 120 minutes after injection): 5.81 ± 0.215 nM
- cumulative food intake at 8 hours (0- to 8-hour interval), low dose ([1]; 25 nmol/kg SC, overnight-fasted C57BL/6 mice, n = 9, mean ± SEM): 1.98 ± 0.14 g
- food intake at 8 hours, high dose ([1]; 150 nmol/kg SC, overnight-fasted C57BL/6 mice, n = 9, mean ± SEM): 1.04 ± 0.09 g

Compound: PP3-36: DPPIV degradation product of PP (LEPVYPGDNATPEQMAQYAADLRRYINMLTRPRY-NH2; ends and bridges not checked; UniProt P01298 32-65, looked up, fragment)
- affinity to the Y4 receptor compared with PP (mouse Y4 receptor; DPPIV degradation product compared with PP, statement in discussion): no substantial reduction in affinity
- cumulative food intake 0 to 8 hours ([1]; 150 nmol/kg SC, overnight-fasted C57/BL6 mice, n = 7, mean ± SEM): 1.71 ± 0.29 g
